Among the targets are HLA-DR DRB1*0301 (DR3) (Homo sapiens, UniProt P01903+P01911, A100K/A102G/A103R/A169T/F55Y/I96L/K41T/L162R/M171V/P40S/Q125H/Q178H/Q39Y/R42S/S66N/T106N/T262R/W38E/Y61H); HLA-DR DRB1*0802 (DR8) (Homo sapiens, UniProt P01903+P01911, A100R/A103L/A169T/F76Y/H45Y/I96F/K41T/L162R/M171V/P40S/Q125H/Q178H/Q39Y/Q99D/R218S/R42G/S66Y/V115G/W38E); HLA-DR DRB3*0101 (DR52) (Homo sapiens, UniProt P01903+P79483).

What all share (assay): biochemical
Common to all, as to format: binding

A further test addresses HLA-DR DRB1*0101 (DR1) (Homo sapiens, UniProt P01903+P01911, A100R/D57E/F55L/F60I/F76Y/I96L/L162R/M171V/P40L/Q125E/R42F/V115G/Y59C). The settings on record: DRB1 *0101.
The target of the next test is HLA-DR DRB1*0401 (DR4) (Homo sapiens, UniProt P01903+P01911, A100K/A169T/F76Y/I96L/K127E/L162R/M171V/N62H/P40V/Q125Y/R42H/S133A/S149N/S66Y/V115G/V209L/W38E). Conditions: DRB1 *0401.
The target of another test is HLA-DR DRB1*0405 (DR4) (Homo sapiens, UniProt P01903+P01911, A100R/A169T/D86S/F76Y/I96L/K127E/L162R/M171V/N62H/P40V/Q125Y/R42H/S133A/S149N/S66Y/V115G/V209L/W38E). Conditions: DRB1 *0405.
Another test has as its target HLA-DR DRB1*0701 (DR7) (Homo sapiens, UniProt P01903+P01911, A100R/A102G/A103Q/D57E/D86V/E43K/F76Y/K127E/L162R/M171V/P40G/Q125H/Q99D/R33Q/R42Y/R54Q/S133A/S66F/T210M/V115G/Y107V/Y59L/Y89S). Conditions: DRB1 *0701.
The next test addresses HLA-DR DRB1*0901 (DR9) (Homo sapiens, UniProt P01903+P01911, A100R/A103E/D57H/D86V/F55Y/F60I/F76Y/I96F/K127E/L162R/M171V/P40D/Q125H/Q99R/R33Q/R42F/S133A/S66N/T210M/V115G/W38K/Y107V/Y59G/Y89S). Conditions: DRB1 *0901.
The next test concerns the target HLA-DR DRB1*1101 (DR11) (Homo sapiens, UniProt P01903+P01911, A100R/A169T/A87E/I96F/K41T/L162R/M171V/P40S/Q125H/Q178H/Q39Y/Q99D/R42S/S66Y/T262R/V115G/W38E). The settings on record: DRB1 *1101.
The next test concerns the target HLA-DR DRB1*1302 (DR13) (Homo sapiens, UniProt P01903+P01911, A100E/A169T/K41T/L162R/M171V/P40S/Q125H/Q178H/Q39Y/Q99D/R42S/S66N/T262R/V115G/W38E/Y61H). Conditions: DRBI *1302.
A further test has as its target HLA-DR DRB4*0101 (DR53) (Homo sapiens, UniProt P01903+P13762, G164S). The settings on record: DRB4 *0101.
For another test, the target named is HLA-DR DRB5*0101 (DR51) (Homo sapiens, UniProt P01903+Q30154). The settings on record: DRB5 *0101.
The next test has as its target HLA-DR DRB1*1501 (DR15) (Homo sapiens, UniProt P01903+P01911). The settings on record: DRBI *1501.

Experimental findings from patent US20060079453A1, “Hla binding peptides and their uses” (priority 2002, published 2006) are described below.

No end group written: not given here. Where only a bound is given, the exact number is not on record here.

Chain of HLA-DR DRB1*1101 (DR11) (P01903 26-254 limits assumed, other chains not shown): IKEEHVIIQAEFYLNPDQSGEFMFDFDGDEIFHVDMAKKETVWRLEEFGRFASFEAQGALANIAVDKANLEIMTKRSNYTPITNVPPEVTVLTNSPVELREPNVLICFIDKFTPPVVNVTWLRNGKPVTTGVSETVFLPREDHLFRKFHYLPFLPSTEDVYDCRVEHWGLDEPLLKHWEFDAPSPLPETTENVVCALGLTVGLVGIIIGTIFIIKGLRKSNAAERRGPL
Chain of HLA-DR DRB1*0301 (DR3) (P01903 26-254 limits assumed, other chains not shown): as above
Chain of HLA-DR DRB1*1302 (DR13) (P01903 26-254 limits assumed, other chains not shown): as above

The term IC50 denotes the concentration needed to halve the response being measured. Low readings indicate inhibition by little substance, high ones a need for much substance. Consider GSHLVEALYLVTGER, for which the IC50 was 0.645 µM on HLA-DR DRB1*0101 (DR1); above 176 µM against HLA-DR DRB1*0301 (DR3); 15.8 µM at HLA-DR DRB1*0401 (DR4); 14.4 µM against HLA-DR DRB1*0405 (DR4); 0.553 µM at HLA-DR DRB1*0701 (DR7); above 54.4 µM at HLA-DR DRB1*0802 (DR8). In addition, the IC50 at HLA-DR DRB1*0901 (DR9) is above 63 µM; against HLA-DR DRB1*1101 (DR11), above 10.5 µM; on HLA-DR DRB1*1302 (DR13) it was 12.2 µM; against HLA-DR DRB3*0101 (DR52), 18.2 µM; against HLA-DR DRB4*0101 (DR53) it was 0.225 µM; against HLA-DR DRB5*0101 (DR51) it was 11.4 µM.
Turning to SWLEPVQFLRSVFAN, the IC50 against HLA-DR DRB1*0101 (DR1) was 0.011 µM; against HLA-DR DRB1*0301 (DR3), 167 µM; against HLA-DR DRB1*0405 (DR4), 0.883 µM; at HLA-DR DRB1*0701 (DR7) it was 0.589 µM; against HLA-DR DRB1*0802 (DR8), 3.42 µM; on HLA-DR DRB1*0901 (DR9), 4 µM. For the same sequence, the IC50 against HLA-DR DRB1*1302 (DR13) is 4.32 µM; against HLA-DR DRB3*0101 (DR52) it was above 270 µM; against HLA-DR DRB5*0101 (DR51), 4.81 µM.
As for QCQKLLWQLNGRLEY, the IC50 against HLA-DR DRB1*0301 (DR3) is 133 µM; against HLA-DR DRB1*0401 (DR4) it was 0.36 µM; on HLA-DR DRB1*0405 (DR4) it was 1 µM; against HLA-DR DRB1*0701 (DR7), 3.7 µM; on HLA-DR DRB1*0802 (DR8), 2.52 µM; against HLA-DR DRB1*0901 (DR9) it was 4.67 µM. In addition, the IC50 at HLA-DR DRB1*1101 (DR11) came out at 1.64 µM; against HLA-DR DRB3*0101 (DR52), 8.71 µM; against HLA-DR DRB4*0101 (DR53), 0.209 µM; against HLA-DR DRB5*0101 (DR51) it was 0.924 µM.
With LYFVKVDVTGAYDTI, the IC50 against HLA-DR DRB1*0101 (DR1) was determined as 0.016 µM; at HLA-DR DRB1*0301 (DR3), 0.0096 µM; against HLA-DR DRB1*0401 (DR4) it was 0.0028 µM; at HLA-DR DRB1*0405 (DR4), 0.014 µM; on HLA-DR DRB1*0701 (DR7), 5.89 µM; against HLA-DR DRB1*0802 (DR8) it was 0.413 µM. For the same sequence, the IC50 came out at 0.221 µM against HLA-DR DRB1*1101 (DR11); 0.079 µM against HLA-DR DRB1*1302 (DR13); 9.75 µM at HLA-DR DRB1*1501 (DR15); 0.016 µM on HLA-DR DRB3*0101 (DR52); 0.022 µM on HLA-DR DRB4*0101 (DR53); 4.96 µM against HLA-DR DRB5*0101 (DR51).
Regarding RTGQIFKQTYSKFDT, the IC50 was 1.55 µM against HLA-DR DRB1*0101 (DR1); 20.3 µM against HLA-DR DRB1*0301 (DR3); 1.68 µM at HLA-DR DRB1*0401 (DR4); 0.04 µM at HLA-DR DRB1*0405 (DR4); 0.046 µM against HLA-DR DRB1*0701 (DR7); 16.4 µM on HLA-DR DRB1*0802 (DR8). Moreover, the IC50 against HLA-DR DRB1*1101 (DR11) is 6.96 µM; against HLA-DR DRB1*1302 (DR13), 0.066 µM; at HLA-DR DRB1*1501 (DR15), 0.155 µM; against HLA-DR DRB3*0101 (DR52), 14.7 µM; on HLA-DR DRB4*0101 (DR53), 0.201 µM; against HLA-DR DRB5*0101 (DR51), 0.064 µM.
With HLKRYYGRILHYLKA, the IC50 was 0.026 µM on HLA-DR DRB1*0101 (DR1); 3.71 µM at HLA-DR DRB1*0301 (DR3); 0.086 µM against HLA-DR DRB1*0405 (DR4); 0.214 µM against HLA-DR DRB1*0701 (DR7); 0.237 µM at HLA-DR DRB1*0802 (DR8); 2.9 µM against HLA-DR DRB1*0901 (DR9). For the same sequence, the IC50 was 0.868 µM against HLA-DR DRB1*1302 (DR13); 0.00069 µM on HLA-DR DRB1*1501 (DR15); 6.61 µM on HLA-DR DRB3*0101 (DR52); 0.022 µM against HLA-DR DRB4*0101 (DR53); 0.0023 µM on HLA-DR DRB5*0101 (DR51).
In the case of TSLTFSESIPTPSNR, the IC50 at HLA-DR DRB1*0301 (DR3) came to 17.4 µM; against HLA-DR DRB1*0401 (DR4) it was 0.018 µM; on HLA-DR DRB1*0405 (DR4), 0.686 µM; at HLA-DR DRB1*0802 (DR8), 17.6 µM; at HLA-DR DRB1*0901 (DR9) it was 2.46 µM; on HLA-DR DRB1*1101 (DR11) it was 22.2 µM. Further, the IC50 was 0.016 µM against HLA-DR DRB1*1302 (DR13), above 95.2 µM against HLA-DR DRB3*0101 (DR52), 3.48 µM against HLA-DR DRB4*0101 (DR53) and above 1.34 µM at HLA-DR DRB5*0101 (DR51).
As to FVNQHLCGSDLVEAL [FVNQHLCGSDLVEAL], the IC50 on HLA-DR DRB1*0101 (DR1) is 0.117 µM; at HLA-DR DRB1*0301 (DR3), above 74.8 µM; at HLA-DR DRB1*0401 (DR4), 19.2 µM; on HLA-DR DRB1*0405 (DR4), 14.9 µM; on HLA-DR DRB1*0802 (DR8) it was above 54.4 µM; on HLA-DR DRB1*0901 (DR9), above 63 µM. Besides, the IC50 at HLA-DR DRB1*1101 (DR11) is above 1110 µM; at HLA-DR DRB1*1302 (DR13) it was 20.2 µM; at HLA-DR DRB3*0101 (DR52), 10 µM; against HLA-DR DRB4*0101 (DR53) it was 24.5 µM; on HLA-DR DRB5*0101 (DR51) it was above 43.3 µM.
